Measurements published in US20090082341A1 (SYNOSIA THERAPEUTICS, priority 2007, published 2009).

Target: T1, human A1 receptor (Homo sapiens, UniProt P30542)
T1 sequence (P30542 1-326): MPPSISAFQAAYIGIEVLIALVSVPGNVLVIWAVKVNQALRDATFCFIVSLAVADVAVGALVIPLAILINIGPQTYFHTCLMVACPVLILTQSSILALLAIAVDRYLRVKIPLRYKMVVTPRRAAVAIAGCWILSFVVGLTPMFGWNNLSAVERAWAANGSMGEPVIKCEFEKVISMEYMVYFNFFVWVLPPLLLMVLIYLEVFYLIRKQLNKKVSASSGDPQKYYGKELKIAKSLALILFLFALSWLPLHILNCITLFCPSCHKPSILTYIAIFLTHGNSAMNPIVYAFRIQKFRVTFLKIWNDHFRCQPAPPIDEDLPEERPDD
Assay: NECA-stimulated Ca2+ flux in hA1-Gα16-CHO cells (FLIPR)
Type: cell-based
Description: The density of cells was sufficient to yield a confluent monolayer the next day. Hanks balanced salt solution, without phenol red, containing 20 mM HEPES (pH 7.3) and 2.5 mM probenecid (assay buffer) was prepared fresh for each experiment. […] The dye-loading buffer consisted of a final concentration of 2 μM Fluo-4-AM (dissolved in DMSO and pluronic acid) in assay buffer. […] Once dye-loaded, the cells were washed thoroughly on an Embla cell washer with the assay buffer to remove any unincorporated dye. Exactly 100 μl assay buffer was left in each well.
J. Pharm. […] The concentration of agonist that produced a half-maximal response is represented by the EC50 value, the logarithm of which yielded the pEC50 value.

COc1ccc(N2CCOCC2)c2sc(NC(=O)N3CCC(C)(O)CC3)nc12 [4-hydroxy-4-methyl-piperidine-1-carboxylic acid (4-methoxy-7-morpholin-4-yl-benzothiazol-2-yl)-amide]
Hill slope, hA1 Ca2+ flux: 0.7 | IC50 (read-out: pIC50, antagonism of NECA-stimulated Ca2+ flux, hA1 (converted)): > 10 µM
